Structures are written as SMILES.

In one assay the test system is L929 cells. Kind of assay: L929 cell necroptosis assay (TNFa + zVAD, CellTiter-Glo recovery). The assay is classed as cell-based, murine. More on the design: L929-CTG-recovery, L929, TNFa + zVAD (IC50): unit not given here. Particulars: TNFa 2 ng/mL + zVAD-fmk; for IC50: Mus musculus, L929, 18 h, read-out: L929-CTG-recovery, L929, TNFa + zVAD (IC50); for L929-CTG-recovery, L929, TNFa + zVAD (IC50): 18 hours. As for the experimental part:
(§1) In this example, U937 and L929 cells were exposed to compounds of the present disclosure and a cell necroptosis assay was conducted to evaluate the compounds' activity against human RIP1 and murine RIP1.
(§2) U937 and L929 cells were obtained from the American Type Culture Collection (Manassas, VA, USA). Both cells were maintained in logarithmic growth phase in complete RPMI 1640 media (Sigma, ST Louis, MO, USA) supplemented with 10% fetal bovine serum (Sigma, ST Louis, MO, USA) at 37° C. with 5% CO2. For necroptosis assay, L929 cells were plated for 18 h in 100 μL/well medium at 10K cells/well in Costar 96-well black clear-bottom plates (Fisher Scientific, Hampton, NH, USA); U937 cells were plated on the day of the assay in 50 μL/well medium containing 60 uM zVAD-fmk (Lonza, Basel, Switzerland) at 50K cells/well. Medium from L929 cells were removed from the 96-well plates and replaced with 50 μL/well new medium containing 40 uM zVAD-fmk. Each compound of the present disclosure evaluated in this example was serially diluted in DMSO from 2.5 mM in 4-fold dilutions, and then diluted 1:125 in complete medium. 50 μL/well 2× of the compound was then added to the cells in the plates. The cells were pre-incubated with the compound for 1 hour at 37° C. with 5% CO2 and before addition of 10 μL/well 11×TNFa (Peprotech, Rocky Hill, NJ, USA) to give a final concentration of 2 ng/mL for TNFa. The relative amount of necroptosis cells was determined by luminescent using a Wallac Victor2 Luminometer (PerkinElmer, Waltham, MA, USA) and a CellTiter-Glo® Luminescent Cell Viability Reagent Assay (Promega, Madison, WI, USA) added per manufacturer instructions after 18 hours of TNFa stimulation at 37° C. with 5% CO2. This example establishes that embodiments of the compounds described herein have unexpectedly potent activity against human RIP1 and murine RIP1, which allows their assessment in in vivo mouse models of disease.
A general note: Cellular ATP, detected with luciferase, serves as a proxy for viable cell number.

In another assay the target is T1, RIPK1 (Homo sapiens, UniProt Q13546).
T1 sequence (Q13546 1-671): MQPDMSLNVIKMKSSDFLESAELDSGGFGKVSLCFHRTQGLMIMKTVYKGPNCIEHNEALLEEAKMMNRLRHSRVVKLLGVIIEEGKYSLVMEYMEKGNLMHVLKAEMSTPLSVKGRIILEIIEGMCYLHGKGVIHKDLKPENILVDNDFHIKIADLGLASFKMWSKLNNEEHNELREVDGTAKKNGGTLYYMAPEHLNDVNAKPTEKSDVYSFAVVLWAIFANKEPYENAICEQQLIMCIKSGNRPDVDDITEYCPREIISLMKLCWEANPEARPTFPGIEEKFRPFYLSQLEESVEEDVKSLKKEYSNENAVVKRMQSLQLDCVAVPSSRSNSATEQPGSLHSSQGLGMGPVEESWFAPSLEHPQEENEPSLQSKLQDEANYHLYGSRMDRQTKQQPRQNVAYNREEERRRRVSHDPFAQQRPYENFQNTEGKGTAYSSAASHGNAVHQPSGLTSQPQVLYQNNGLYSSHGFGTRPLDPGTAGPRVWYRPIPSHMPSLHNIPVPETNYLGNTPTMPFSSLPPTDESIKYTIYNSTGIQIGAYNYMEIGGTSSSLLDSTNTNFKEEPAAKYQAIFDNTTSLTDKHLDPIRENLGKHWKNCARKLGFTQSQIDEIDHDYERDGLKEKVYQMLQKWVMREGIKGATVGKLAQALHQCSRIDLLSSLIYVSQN
Kind of assay: RIPK1 ADP-Glo biochemical kinase assay. Particulars: read-out: RIPK1 ADP-Glo Kinase (IC50). As for the experimental part:
In this example, compounds of the disclosure were evaluated using a biochemical assay using the ADP-Glo™ technology.
ADP-Glo™ (Promega, Madison, WI, USA) reagents were thawed at ambient temperature. Kinase Detection Reagent was prepared by mixing kinase detection buffer with the lyophilized kinase detection substrate.
A […] stock volume of 5× Reaction Kinase Buffer was made by mixing 1000 μl of 1M MgCl2, 500 μl of 1M Tris-HCL pH7.4, 0.5 mg/ml (25 mg) of BSA, and 3475 μl of distilled H2O. A 3 ml 2× working stock volume of Reaction Kinase Buffer was made containing a final concentration of 100 μM DTT and 4 mM MnCl2.
Components of RIPK1 enzyme (Rigel Pharmaceuticals, South San Francisco, CA, USA) were thawed on ice. Diluted RIPK1 was prepared in 1× Kinase Reaction Buffer (diluted from 2× buffer) to 31 ng/well.
1.0 ul of diluted compound was added to a 384 well plate in duplicate. […] The final reaction volume was 5.0 μl.
The plate was quickly centrifuged and the reaction was incubated at 30° C. for 30 minutes. Adding 5 μl of ADP-Glo™ terminated the reaction. The plate was quickly centrifuged and the reaction was incubated at room temperature for 40 minutes. Kinase Detection Reagent was then added and incubated at room temperature for 30 minutes. The relative light unit (RLU) of kinase reaction was determined by luminescent (Luminescence 0.1 s) using a Wallac Victor2 Luminometer (PerkinElmer, Waltham, MA, USA).
(ADP-Glo first removes unused ATP, then detects ADP through luciferase.)

A further assay deals with U937 cells. The assay is described as follows: U937 cell necroptosis assay (TNFa + zVAD, CellTiter-Glo recovery). The assay is classed as cell-based. To be noted: Homo sapiens, U-937, 18 h, TNFa 2 ng/mL + zVAD-fmk, read-out: U937 Zvad TNF CTG Recovery, U937, TNFa + zVAD (IC50). As for the experimental part:
as §1, §2

In the case of `CN1C(=O)[C@@H](NC(=O)c2cc(Oc3cncc(F)c3)ccn2)COc2ccc(C#CC3(O)CCC3)cc21` [I-100, (S)-4-((5-fluoropyridin-3-yl)oxy)-N-(7-((1-hydroxycyclobutyl)ethynyl)-5-methyl-4-oxo-2,3,4,5-tetrahydrobenzo[b][1,4]oxazepin-3-yl)picolinamide], the values for the IC50 with L929 cells, on RIPK1 and with U937 cells were 1100 nM, 28 nM and 4.1 nM, respectively.
In the case of `Cc1cccc(Cc2cnn(C(=O)N[C@H]3CCc4ccc(C#CC(C)(C)O)cc4N(C)C3=O)c2)n1` [I-119, (S)—N-(8-(3-Hydroxy-3-methylbut-1-yn-1-yl)-1-methyl-2-oxo-2,3,4,5-tetrahydro-1H-benzo[b]azepin-3-yl)-4-((6-methylpyridin-2-yl)methyl)-1H-pyrazole-1-carboxamide], the IC50 turned out to be 407 nM with L929 cells, 17.1 nM on RIPK1 and 16.6 nM with U937 cells.
Consider `CN1C(=O)[C@@H](NC(=O)c2cc(Cc3cccnc3)ccn2)COc2ccc(C#CC(C)(C)O)cc21` [I-61, (S)—N-(7-(3-hydroxy-3-methylbut-1-yn-1-yl)-5-methyl-4-oxo-2,3,4,5-tetrahydrobenzo[b][1,4]oxazepin-3-yl)-4-(pyridin-3-ylmethyl)picolinamide], for which the IC50 was found to be 2420 nM with L929 cells, 24.3 nM at RIPK1 and 19.2 nM in the assay with U937 cells.
For the compound `Cc1ccc(Oc2ccnc(C(=O)N[C@H]3COc4ccc(C#CC5(O)COC5)cc4N(C)C3=O)c2)c(C)n1` [I-79, (S)-4-((2,6-dimethylpyridin-3-yl)oxy)-N-(7-((3-hydroxyoxetan-3-yl)ethynyl)-5-methyl-4-oxo-2,3,4,5-tetrahydrobenzo[b][1,4]oxazepin-3-yl)picolinamide], the IC50 in the assay with L929 cells is 4330 nM; on RIPK1, 67.2 nM; in the assay on U937 cells it was 182 nM.
The corresponding values for `Cc1nc(Cc2ccnc(C(=O)N[C@H]3COc4ccc(C#CC(C)(C)O)cc4N(C)C3=O)c2)cs1` [I-65, (S)—N-(7-(3-hydroxy-3-methylbut-1-yn-1-yl)-5-methyl-4-oxo-2,3,4,5-tetrahydrobenzo[b][1,4]oxazepin-3-yl)-4-((2-methylthiazol-4-yl)methyl)picolinamide] are 76.3 nM, 18.1 nM and 43.4 nM.
Consider `Cc1cccc(Cc2cnn(C(=O)N[C@H]3COc4ccc(C#CC5COC5)cc4N(C)C3=O)c2)n1` [I-109, (S)—N-(5-Methyl-7-(oxetan-3-ylethynyl)-4-oxo-2,3,4,5-tetrahydrobenzo[b][1,4]oxazepin-3-yl)-4-((6-methylpyridin-2-yl)methyl)-1H-pyrazole-1-carboxamide], for which the values for the IC50 with L929 cells, on RIPK1 and in the assay with U937 cells were 3510 nM, 26.3 nM and 188 nM, respectively.
On to `CN1C(=O)[C@@H](NC(=O)n2cc(Cc3cccc(C(F)(F)F)n3)cn2)COc2ccc(Br)cc21` [I-21, (S)—N-(7-Bromo-5-methyl-4-oxo-2,3,4,5-tetrahydrobenzo[b][1,4]oxazepin-3-yl)-4-((6-(trifluoromethyl)pyridin-2-yl)methyl)-1H-pyrazole-1-carboxamide], for which the IC50 came to 30400 nM in the assay with L929 cells and 1370 nM in the assay with U937 cells.
With `CN1C(=O)[C@@H](NC(=O)n2cc(Cc3ccncc3)cn2)COc2ccc(Br)cc21` [I-28, (S)—N-(7-Bromo-5-methyl-4-oxo-2,3,4,5-tetrahydrobenzo[b][1,4]oxazepin-3-yl)-4-(pyridin-4-ylmethyl)-1H-pyrazole-1-carboxamide], the “L929-CTG-recovery, L929, TNFa + zVAD (IC50)” value (shortened to “L929-CTG-recovery, L929”) with L929 cells is given as 5027. Besides, the IC50 with U937 cells came to 235 nM.
With `CN1C(=O)[C@@H](NC(=O)n2cc(Oc3cccc(F)n3)cn2)COc2ccc(C#CC3CCOCC3)cc21` [I-111, (S)-4-((6-Fluoropyridin-2-yl)oxy)-N-(5-methyl-4-oxo-7-((tetrahydro-2H-pyran-4-yl)ethynyl)-2,3,4,5-tetrahydrobenzo[b][1,4]oxazepin-3-yl)-1H-pyrazole-1-carboxamide], the results for the IC50 with L929 cells and in the assay on U937 cells were 85200 nM and 7270 nM, respectively.
With `CN1C(=O)[C@@H](NC(=O)n2cc(Cc3ccccn3)cn2)COc2ccc(Br)cc21` [I-18, (S)—N-(7-Bromo-5-methyl-4-oxo-2,3,4,5-tetrahydrobenzo[b][1,4]oxazepin-3-yl)-4-(pyridin-2-ylmethyl)-1H-pyrazole-1-carboxamide], the “L929-CTG-recovery, L929” value with L929 cells is 5013. Moreover, the IC50 in the assay on U937 cells came out at 286 nM.
Take `CN1C(=O)[C@@H](NC(=O)n2cc(Cc3cccnc3)cn2)COc2ccc(Br)cc21` [I-22, (S)—N-(7-Bromo-5-methyl-4-oxo-2,3,4,5-tetrahydrobenzo[b][1,4]oxazepin-3-yl)-4-(pyridin-3-ylmethyl)-1H-pyrazole-1-carboxamide]: in the assay on L929 cells, the “L929-CTG-recovery, L929” value was found to be 5004. For the same compound, the IC50 in the assay on U937 cells turned out to be 35.1 nM.
Turning to `CN1C(=O)[C@@H](NC(=O)c2cc(Cc3cocn3)ccn2)COc2ccc(C#CC3(O)COC3)cc21` [I-138, (S)—N-(7-((3-hydroxyoxetan-3-yl)ethynyl)-5-methyl-4-oxo-2,3,4,5-tetrahydrobenzo[b][1,4]oxazepin-3-yl)-4-(oxazol-4-ylmethyl)picolinamide], the IC50 in the assay with L929 cells stood at 106 nM; in the assay on U937 cells, 12.9 nM.
For `CN1C(=O)[C@@H](NC(=O)c2cc(Cc3cccc(O)n3)ccn2)COc2ccc(C#CC3(O)COC3)cc21` [I-10, (S)—N-(7-((3-hydroxyoxetan-3-yl)ethynyl)-5-methyl-4-oxo-2,3,4,5-tetrahydrobenzo[b][1,4]oxazepin-3-yl)-4-((6-hydroxypyridin-2-yl)methyl)picolinamide], the values for the IC50 at RIPK1 and in the assay on U937 cells were 304 nM and 2830 nM, respectively.
For `CN1C(=O)[C@@H](NC(=O)c2cc(Oc3ccc(C(F)(F)F)nc3)ccn2)COc2ccc(C#CC3(O)COC3)cc21` [I-81, (S)—N-(7-((3-hydroxyoxetan-3-yl)ethynyl)-5-methyl-4-oxo-2,3,4,5-tetrahydrobenzo[b][1,4]oxazepin-3-yl)-4-((6-(trifluoromethyl)pyridin-3-yl)oxy)picolinamide], the IC50 was 392 nM on RIPK1 and 5290 nM in the assay with U937 cells.
`CN1C(=O)[C@@H](NC(=O)n2cc(Cc3cccc(F)n3)cn2)COc2ccc(Br)cc21` [I-20, (S)—N-(7-Bromo-5-methyl-4-oxo-2,3,4,5-tetrahydrobenzo[b][1,4]oxazepin-3-yl)-4-((6-fluoropyridin-2-yl)methyl)-1H-pyrazole-1-carboxamide]: the “L929-CTG-recovery, L929” value in the assay with L929 cells is on record as 5004. Besides, the IC50 in the assay with U937 cells is 50.2 nM.

Usually IC50 stands for the concentration needed to halve the response being measured.
